Test results from patent publication US7745422B2, “Bisphosphonate compounds and methods for bone resorption diseases, cancer, bone pain, immune disorders, and infectious diseases” (The Board of Trustees of the University of Illinois, priority 2004, dated 2010).
Read-outs that look alike come from different tables or passages of the source.

Experiments:
[1] = test system: Dictyostelium discoideum; test: D. discoideum cell growth inhibition; type: cell-based
Excerpt: (§1) We then investigated the activity of each compound in inhibiting the FPPS from L. major, in Dictyostelium discoideum growth inhibition and in γδ T cell activation. We used the FPPS from L. major since this enzyme is the putative bisphosphonate target in several trypanosomatid species.

[2] = test system: Vγ2Vδ2 T cells; test: gammadelta T cell stimulation (TNF-α release assay); type: cell-based, human
Excerpt: as §1

[3] = Table 4, read-out: (1) D. discoideum IC50
[4] = Table 4, read-out: (3) gammadelta T cell stimulation EC50
[5] = cell growth inhibition, Table 1 and text, read-out: D. discoideum IC50
[6] = TNF-α release, Table 1 and text, read-out: gammadelta T cell stimulation, EC50
[7] = Table 3, additional testing, read-out: gammadelta T cell stimulation EC50
[8] = Dictyostelium discoideum, read-out: (1) D. discoideum IC50
[9] = Homo sapiens, T-cell, read-out: (3) gammadelta T cell stimulation EC50

Row | Structure (SMILES) | IC50 [1, 3] [µM] | EC50 [2, 4] [µM] | other results
1 | CC([n+]1ccccc1)C(O)(P(=O)([O-])O)P(=O)(O)O (single isomer, unassigned) [Compound 583] | 14 | 50 | 
2 | O=P([O-])(O)C(O)(C[n+]1ccc2ccccc2c1)P(=O)(O)O (centres unmarked) [Compound 398] | 20 | 41 | IC50 [1, 5]: 20 µM; EC50 [2, 6]: 41 µM; EC50 [2, 7]: 40.6 µM
3 | O=P([O-])(O)C(O)(C[n+]1ccc(Cc2ccccc2)cc1)P(=O)(O)O (centres unmarked) [Compound 443] | 12 | 230 | IC50 [1, 5]: 12 µM; activity in gammadelta T cell stimulation ([2]; TNF-α release): poor activity; EC50 [2, 6]: 230 µM; EC50 [2, 7]: 187 µM
4 | CCc1ccc[n+](CC(O)(P(=O)([O-])O)P(=O)(O)O)c1 (centres unmarked) [Compound 444] | 5.6 | 5.1 | IC50 [1, 5]: 5.6 µM; EC50 [2, 6]: 5.1 µM; EC50 [2, 7]: 2.8 µM
5 | O=P([O-])(O)C(O)(C[n+]1cccc2cc(Cl)ccc21)P(=O)(O)O (centres unmarked) [Compound 447] | 72 | 53 | IC50 [1, 5]: 72 µM; EC50 [2, 6]: 53 µM
6 | O=P([O-])(O)C(O)(C[n+]1cccc(-c2ccc(C(F)(F)F)cc2)c1)P(=O)(O)O (centres unmarked) [Compound 449] | 4 | 12 | 
7 | Cc1ccc2c(ccc[n+]2CC(O)(P(=O)([O-])O)P(=O)(O)O)c1 (centres unmarked) [Compound 452] | 73 | 250 | 
8 | O=P([O-])(O)C(O)(CC[n+]1ccccc1)P(=O)(O)O (centres unmarked) [Compound 455] | 27 | 25 | 
9 | COc1cc[n+](CC(O)(P(=O)([O-])O)P(=O)(O)O)cc1 (centres unmarked) [Compound 456] | 27 | 19 | 
10 | Cc1ccc2ccc[n+](CC(O)(P(=O)([O-])O)P(=O)(O)O)c2c1 (centres unmarked) [Compound 457] | 14 | 1900 | 
11 | Cc1cc(C)c[n+](CC(O)(P(=O)([O-])O)P(=O)(O)O)c1 (centres unmarked) [Compound 459] | 27 | 14 | 
12 | Cc1cc[n+](CC(O)(P(=O)([O-])O)P(=O)(O)O)cc1C (centres unmarked) [Compound 460] | 14 | 13 | 
13 | O=P([O-])(O)C(O)(C[n+]1cccc(-c2ccc(F)cc2)c1)P(=O)(O)O (centres unmarked) [Compound 462] | 2.7 | 15 | 
14 | O=P([O-])(O)C(C[n+]1ccccc1)P(=O)(O)O (centres unmarked) [Compound 470] | 3.5 |  | EC50 [2, 7]: 3.3 µM
15 | O=P([O-])(O)C(O)(C[n+]1ccc(-c2ccncc2)cc1)P(=O)(O)O (centres unmarked) [Compound 471] |  |  | (1) D. discoideum IC50 ([1]; Table 4): inactive; (3) gammadelta T cell stimulation EC50 ([2]; Table 4): inactive
16 | O=P([O-])(O)C(C[n+]1cccc(-c2ccccc2)c1)P(=O)(O)O (centres unmarked) [Compound 472] | 2.5 |  | EC50 [2, 7]: 2.1 µM
17 | O=P([O-])(O)C(C[n+]1ccc2ccccc2c1)P(=O)(O)O (centres unmarked) [Compound 473] | 20 |  | EC50 [2, 7]: 20.1 µM
18 | Cc1ccc[n+](CC(P(=O)([O-])O)P(=O)(O)O)c1 (centres unmarked) [Compound 474] | 4.4 |  | EC50 [2, 7]: 2.4 µM
19 | CCc1ccc[n+](CC(P(=O)([O-])O)P(=O)(O)O)c1 (centres unmarked) [Compound 475] | 4.1 |  | EC50 [2, 7]: 2.8 µM
20 | CCCCc1ccc[n+](CC(P(=O)([O-])O)P(=O)(O)O)c1 (centres unmarked) [Compound 476] | 2.3 |  | EC50 [2, 7]: 2 µM
21 | O=P([O-])(O)C(O)(C[n+]1ccc(-c2ccccc2)cc1)P(=O)(O)O (centres unmarked) [Compound 478] | 760 |  | (3) gammadelta T cell stimulation EC50 ([2]; Table 4): inactive
22 | COc1ccc[n+](CC(O)(P(=O)([O-])O)P(=O)(O)O)c1 (centres unmarked) [Compound 479] |  | 15 | 
23 | O=P([O-])(O)C(C[n+]1cccc(Cc2ccccc2)c1)P(=O)(O)O (centres unmarked) [Compound 480] | 3 |  | EC50 [2, 7]: 68.7 µM
24 | O=P([O-])(O)C(C[n+]1ccc(Cc2ccccc2)cc1)P(=O)(O)O (centres unmarked) [Compound 481] | 3.5 |  | EC50 [2, 7]: 83.4 µM
25 | O=P([O-])(O)C(C[n+]1cccc(Br)c1)P(=O)(O)O (centres unmarked) [Compound 483] |  |  | IC50 [1, 8]: 2.5 µM; EC50 ([2]; Homo sapiens, T-cell, read-out: gammadelta T cell stimulation EC50): 2.9 µM

Row | Structure (SMILES) | IC50 [1, 3] [µM] | EC50 [2, 4] [µM] | other results
26 | O=P([O-])(O)C(C[n+]1ccc(C(F)(F)F)cc1)P(=O)(O)O (centres unmarked) [Compound 485] | 58 | 370 | 
27 | O=P([O-])(O)C(C[n+]1cccc(S(=O)(=O)N2CCCC2)c1)P(=O)(O)O (centres unmarked) [Compound 502] | 100 |  | (3) gammadelta T cell stimulation EC50 ([2]; Table 4): inactive
28 | O=P([O-])(O)C(O)(C[n+]1ccc(C(F)(F)F)cc1)P(=O)(O)O (centres unmarked) [Compound 513] | 1500 | 550 | 
29 | O=P([O-])(O)C(O)(C[n+]1cccc(C(F)(F)F)c1)P(=O)(O)O (centres unmarked) [Compound 520] |  |  | IC50 [1, 8]: 6.3 µM; EC50 [2, 9]: 14 µM
30 | O=P([O-])(O)C(C[n+]1ccccc1F)P(=O)(O)O (centres unmarked) [Compound 521] | 570 | 790 | 
31 | O=P([O-])(O)C(C[n+]1cc(F)cc(F)c1)P(=O)(O)O (centres unmarked) [Compound 523] | 4.6 | 11 | 
32 | O=P([O-])(O)C(O)(C[n+]1cccc(Cl)c1)P(=O)(O)O (centres unmarked) [Compound 524] |  |  | IC50 [1, 8]: 2.4 µM; EC50 [2, 9]: 10 µM
33 | O=Cc1ccc[n+](CC(P(=O)([O-])O)P(=O)(O)O)c1 (centres unmarked) [Compound 525] | 8.4 | 11 | 
34 | O=C(c1ccccc1)c1ccc[n+](CC(P(=O)([O-])O)P(=O)(O)O)c1 (centres unmarked) [Compound 530] | 190 | 6500 | 
35 | O=P([O-])(O)C(C[n+]1ccc(-n2nnc3ccccc32)cc1)P(=O)(O)O (centres unmarked) [Compound 531] | 20 |  | (3) gammadelta T cell stimulation EC50 ([2]; Table 4): inactive
36 | O=Cc1cccc(-c2ccc[n+](CC(P(=O)([O-])O)P(=O)(O)O)c2)c1 (centres unmarked) [Compound 532] | 4.1 | 41 | 
37 | O=P([O-])(O)C(C[n+]1cccc(-c2ccc(F)c(F)c2)c1)P(=O)(O)O (centres unmarked) [Compound 533] |  | 19 | 
38 | O=P([O-])(O)C(O)(C[n+]1cc(F)cc(-c2ccccc2)c1)P(=O)(O)O (centres unmarked) [Compound 534] |  | 16 | 
39 | CP(=O)([O-])C(C[n+]1cccc(-c2ccccc2)c1)P(C)(=O)O (centres unmarked) [Compound 556] |  | 2300 | (1) D. discoideum IC50 ([1]; Table 4): inactive
40 | CCCOc1cccc(-c2ccc[n+](CC(P(=O)([O-])O)P(=O)(O)O)c2)c1 (centres unmarked) [Compound 577] | 4.1 | 21 | 
41 | COc1cccc(-c2ccc[n+](CC(P(=O)([O-])O)P(=O)(O)O)c2)c1 (centres unmarked) [Compound 578] | 4 | 20 | 
42 | CCCCOc1cccc(-c2ccc[n+](CC(P(=O)([O-])O)P(=O)(O)O)c2)c1 (centres unmarked) [Compound 579] | 6 | 20 | 
43 | CCCCOc1ccc(-c2ccc[n+](CC(P(=O)([O-])O)P(=O)(O)O)c2)cc1 (centres unmarked) [Compound 586] | 6 | 90 | 
44 | CCCCCCc1ccc[n+](CC(P(=O)([O-])O)P(=O)(O)O)c1 (centres unmarked) [Compound 598] | 1.7 | 35 | 
45 | CC(C)=CCc1ccc[n+](CC(P(=O)([O-])O)P(=O)(O)O)c1 (centres unmarked) [Compound 599] | 1.7 | 69 | 
46 | CCCCOc1ccc(-c2ccc[n+](CC(O)(P(=O)([O-])O)P(=O)(O)O)c2)cc1 (centres unmarked) [Compound 600] | 11 | 290 | 
47 | CC(C)=CCCC(C)=CCc1ccc[n+](CC(P(=O)([O-])O)P(=O)(O)O)c1 (centres unmarked) [Compound 601] | 2.4 | 220 | 
48 | CC(C)C#Cc1ccc[n+](CC(P(=O)([O-])O)P(=O)(O)O)c1 (centres unmarked) [Compound 602] | 2.04 | 18 | 
49 | CC(C)CCc1ccc[n+](CC(P(=O)([O-])O)P(=O)(O)O)c1 (centres unmarked) [Compound 603] |  | 22 | 
50 | CCCCCCCCc1ccc[n+](CC(P(=O)([O-])O)P(=O)(O)O)c1 (centres unmarked) [Compound 605] |  | 6 | 
